Measured values published in article PMC4019507, “From Arylamine N-Acetyltransferase to Folate-Dependent Acetyl CoA Hydrolase: Impact of Folic Acid on the Activity of (HUMAN)NAT1 and Its Homologue (MOUSE)NAT2” (PLoS ONE, 2014).

Legend:
Type in all cases: biochemical
[1] = target: T1, (HUMAN)NAT1, human arylamine N-acetyltransferase Type 1 (Homo sapiens, UniProt P18440); assay: HPLC time course of hydrolysis to CoA
T1 construct: pure recombinant
T1 sequence (P18440 1-290): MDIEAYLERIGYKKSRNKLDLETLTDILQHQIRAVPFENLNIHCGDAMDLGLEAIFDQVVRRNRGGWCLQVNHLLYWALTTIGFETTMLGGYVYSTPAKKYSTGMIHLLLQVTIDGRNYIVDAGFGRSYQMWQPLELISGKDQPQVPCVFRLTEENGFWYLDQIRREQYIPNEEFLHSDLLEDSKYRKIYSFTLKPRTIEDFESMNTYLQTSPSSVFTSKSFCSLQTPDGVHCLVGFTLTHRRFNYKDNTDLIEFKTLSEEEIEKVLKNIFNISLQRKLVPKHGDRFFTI

[2] = target: T2, (MOUSE)NAT2, murine arylamine N-acetyltransferase Type 2 (Mus musculus, UniProt P50295); assay: real-time 1H-NMR and DTNB assay of hydrolysis to CoA and acetate
T2 construct: pure recombinant
T2 sequence (P50295 1-290): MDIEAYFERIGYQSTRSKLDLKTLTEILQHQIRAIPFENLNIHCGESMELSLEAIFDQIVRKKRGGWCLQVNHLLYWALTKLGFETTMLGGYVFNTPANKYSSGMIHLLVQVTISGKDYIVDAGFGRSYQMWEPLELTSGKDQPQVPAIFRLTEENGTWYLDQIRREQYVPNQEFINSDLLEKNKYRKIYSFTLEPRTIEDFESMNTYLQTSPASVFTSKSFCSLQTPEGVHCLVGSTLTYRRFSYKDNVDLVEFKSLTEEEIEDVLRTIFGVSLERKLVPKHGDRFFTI

[3] = target: T2, (MOUSE)NAT2, murine arylamine N-acetyltransferase Type 2; assay: DTNB colorimetric assay of folate-dependent AcCoA hydrolysis, dose response
Source text: DTNB colorimetric assay of folate-dependent AcCoA hydrolysis, dose response on (MOUSE)NAT2, murine arylamine N-acetyltransferase Type 2 | its concentration dependence was characterised (Figure 6C).

[4] = target: T1, (HUMAN)NAT1, human arylamine N-acetyltransferase Type 1; assay: folate concentration dependence of AcCoA hydrolysis (Michaelis-Menten fit); HPLC time course
[5] = target: T2, (MOUSE)NAT2, murine arylamine N-acetyltransferase Type 2; assay: folate concentration dependence of AcCoA hydrolysis (Michaelis-Menten fit); real-time 1H-NMR of turnover
[6] = target: T2, (MOUSE)NAT2, murine arylamine N-acetyltransferase Type 2; assay: DTNB colorimetric hydrolysis assay

Compound: CC(=O)SCCNC(=O)CCNC(=O)[C@H](O)C(C)(C)COP(=O)(O)OP(=O)(O)OC[C@H]1O[C@@H](n2cnc3c(N)ncnc32)[C@H](O)[C@@H]1OP(=O)(O)O [acetyl Coenzyme A]
- specific rate of hydrolysis to CoA [1]: 583 µM/s/mg
- specific rate of hydrolysis to CoA and acetate [2]: 360 µM/s/mg

Compound: Cc1cc(C)cc(NC2=C(NS(=O)(=O)c3ccccc3)C(=O)c3ccccc3C2=O)c1 [compound 1, naphthoquinone 1]
- IC50 [3]: 0.14 µM

Compound: Nc1nc2ncc(CNc3ccc(C(=O)N[C@@H](CCC(=O)O)C(=O)O)cc3)nc2c(=O)[nH]1 [folate]
- Kd [4]: ~75 µM
- Kd [5]: ~71 µM

Compound: CCC(=O)SCCNC(=O)CCNC(=O)[C@H](O)C(C)(C)COP(=O)(O)OP(=O)(O)OC[C@H]1O[C@@H](n2cnc3c(N)ncnc32)[C@H](O)[C@@H]1OP(=O)(O)O [n-propionyl CoA]
- specific acetyl-CoA hydrolysis rate [6]: 290 µM/s/mg
